Results on two compounds are retold here after paper PMC9387934, “Randomized single oral dose phase 1 study of safety, tolerability, and pharmacokinetics of Iminosugar UV-4 Hydrochloride (UV-4B) in healthy subjects” (PLoS Neglected Tropical Diseases, 2022).

SMILES strings stand for the structures. Where a name gives a salt, the structure may show the parent alone. Read-outs that look alike come from different tables or passages of the source.

The conditions of series [1]: cited from earlier work.
Series [2] is described as follows: Reproductive toxicity upper limit study in rabbits, 13 days. The format is in vivo, rabbit. Particulars: 50 mg/kg/day. The protocol: 7. Reproductive toxicity:
UV-4B has been evaluated for developmental and reproductive toxicity in fertility and early embryonic development in rats, embryo-fetal development in rats and rabbits, and pre- and postnatal development in rats. In male and female rats given UV-4B at 8, 20, and 50 mg/kg/day before mating and continuing through Gestation Day 13, a […]
observed at 50 mg/kg/day. […]
count but following a 21-week treatment-free period there was complete recovery in pregnancy and fertility indices However, decrease in testicular weight, sperm motility […]
identify the upper limit of reproductive toxicity, a dose of 50 mg/kg/day for 12 […]
In a study designed to identify the upper limit of reproductive toxicity, a dose of 50 […]
rabbit offspring. The rat and rabbit doses are equivalent to 486 and 966 mg/day, […]
In summary, findings that have been identified in the UV-4B toxicology studies so far include effects on the GI tract (including ulcers/erosions), lymphocytes and lymphoid tissue, reduction in PLT count, and increases in transaminases (AST>ALT). Findings were generally consistent across mouse, dog, and rat, apart from the isolated finding of swollen paws/legs and perioral appearance and red skin which was seen only in the rat. […]

On the set-up of series [3]: method as in Investigator’s Brochure (IB). The following applies: in vivo; ref Investigator’s Brochure (IB); cited from earlier work.
In the next series the test system is DENV. The following applies: cited from earlier work.
Another series has as its system CYP2C19. Details: method as in Investigator’s Brochure (IB). The following applies: in vitro; ref Investigator’s Brochure (IB); cited from earlier work.
Another series has as its system ER α-glucosidase enzymes. Also on record: method as in PMID 32227946. The following applies: single dose of UV-4; cited from earlier work.
A further series has as its system CYP2A6. Details: method as in Investigator’s Brochure (IB). The following applies: in vitro; ref Investigator’s Brochure (IB); cited from earlier work.
[4] abbreviates: 20 mg/kg TID, started 1 hour before infection, ref UV4-LIA-0004.
Where [5] appears, read: 20 mg/kg TID, started 24 hours after infection, ref UV4-LIA-0003b.
[6] abbreviates: 20 mg/kg TID, started 24 hours after infection, ref UV4-LIA-0004.
Setting [7] is: 20 mg/kg TID, started 48 hours after infection, ref UV4-LIA-0003b.
Setting [8] is: 20 mg/kg TID, started 48 hours after infection, ref UV4-LIA-0004.

For `COCCCCCCCCCN1C[C@H](O)[C@@H](O)[C@H](O)[C@H]1CO` [UV-4B, N-(9’-methoxynonyl)-1-deoxynojirimycin hydrochloride], the “Vacuoles in kidney (F)” value in series [1] (rat, 25 TID mg/kg) is on record as “P(F)”. In series [1] (rat, 60 TID mg/kg, second symbol (later day)), the “Swollen paws/legs and perioral appearance and red skin, paws and/or feet” value is given as “−”. Further, in series [1] (rat, 60 TID mg/kg), the “Decreased lymphocytes in mesenteric lymph node (F)” value was “P(F)”. In series [1] (rats, 60 mg/kg/dose TID, Day 1 or Day 2, transient, ref Investigator’s Brochure (IB)), the “Possible histamine-like in-life clinical signs” value was “swollen paws/legs and perioral appearance”. Further, the “No observed effect level (NOEL)” value in series [1] (rats, TID for seven days, lowest dose exceeded the NOEL, ref Investigator’s Brochure (IB)) is on record as less than 10 mg/kg/dose. The “Time to appearance of histamine-like signs after treatment” value in series [1] (rats, first or second daily dose of 60 mg/kg/dose (TID), ref Investigator’s Brochure (IB)) is no more than 120 min. Moreover, the “Finding at 25 mg/kg/dose (TID)” value in series [1] (rats, seven days, ref Investigator’s Brochure (IB)) is on record as “dose-limiting erosions/ulcerations in the stomach”. Besides, in series [2], the “Human equivalent of the rabbit dose” value amounted to 966 mg/day. Further, the “Mouse bone marrow micronucleus” value in series [3] is on record as “not found to be mutagenic or clastogenic”. Moreover, the Survival rate is given as 40% in the series with DENV (2.5 mg/kg TID, ref UV4-LIA-0002); 50% in the series with DENV (5 mg/kg TID, ref UV4-LIA-0002); 100% in the series with DENV (20 mg/kg TID, started 1 hour before infection, ref UV4-LIA-0003b); 80% with DENV (setting [5]); 70% with DENV (setting [7]). Besides, the “Mean time to death (MTTD)” value with DENV (20 mg/kg TID, started 1 hour before infection, all surviving at end of study, ref UV4-LIA-0003b) is “more than 11 days”; in the series on DENV (setting [4]), 9.1 days; with DENV (setting [5]), 7 days; in the series on DENV (setting [6]), 10.5 days; in the series with DENV (setting [7]), 9.3 days; in the series with DENV (setting [8]) it was 6 days. In addition, the figures for the “Survival rate at 11 days post-infection” value in the series with DENV (setting [4]), in the series on DENV (setting [6]) and with DENV (setting [8]) were 30%, 60% and 40%, respectively. For the same compound, the “Minimal effective dose (survival of 90% to 100%)” value with DENV (doses 2.5 to 40 mg/kg TID, first dose 1 hour prior to infection, ref UV4-LIA-0002) is given as 10 mg/kg TID.
For the compound `COCCCCCCCCCN1C[C@H](O)[C@@H](O)[C@H](O)[C@H]1CO` [UV-4, N-(9’-methoxynonyl)-1-deoxynojirimycin], the “Direct inhibition of CYP2C19” value in the series with CYP2C19 was “No clinically relevant direct inhibition”. Also, in the series with ER α-glucosidase enzymes, the “Duration of pharmacodynamic effect on the target ER α-glucosidase enzymes” value is “at least 72 hours”. In addition, the “Direct inhibition of CYP2A6” value in the series on CYP2A6 is recorded as “No clinically relevant direct inhibition”.
